According to US20250144067A1, “PERSONALIZED STARVATION THERAPY FOR CANCER” (Faeth Therapeutics, Inc., priority 2021, published 2025):
Structures can show the parent of a compound that is named as a salt. Where two headings read alike, the source gives them in different places.

What was measured:
[1] = tested on: NCI-H292 lung cancer cells; test: FDA drug screening, complete media vs cholesterol-free media with simvastatin (TABLE 2); type: cell-based, human
[2] = tested on: NCI-H292 lung cancer cells; test: FDA drug screening, complete media vs cholesterol-free media without statin (TABLE 1); type: cell-based, human
[3] = NCI-H292 cells, cholesterol-free media with simvastatin 0.04 μM, […]
[4] = NCI-H292 cells, complete media, […]
[5] = complete media minus cholesterol-free media + simvastatin, […]
[6] = NCI-H292 cells, cholesterol-free media without statin
[7] = complete vs cholesterol-free media, […]
[8] = NCI-H292 cells, FDA drug library screen, cholesterol-free media with simvastatin 0.04 μM
[9] = NCI-H292 cells, FDA drug library screen, complete media
[10] = complete media vs cholesterol-free media + simvastatin (0.04 μM), >0 enhanced anti-cancer activity, about 0 neutral, <0 antagonist
[11] = Complete minus Cholesterol-free, greater than 0 enhanced anti-cancer activity, about 0 neutral, below 0 antagonist
[12] = NCI-H292 cells, FDA drug library screen, cholesterol-free media without statin
[13] = NCI-H292 cells, cholesterol-free media with simvastatin 0.04 μM, cell growth value in FDA drug screen
[14] = NCI-H292 cells, complete media, cell growth value in FDA drug screen
[15] = complete media minus cholesterol-free media + simvastatin, >0 enhanced anti-cancer activity, about 0 neutral, <0 antagonist
[16] = Complete minus Cholesterol-free, greater than 0 enhanced anti-cancer activity, about 0 neutral, below 0 antagonists
[17] = NCI-H292 cells in cholesterol-free media without statin
[18] = NCI-H292 cells in complete media
[19] = NCI-H292 cells, drug in cholesterol-free media with simvastatin 0.04 μM
[20] = NCI-H292 cells, drug in complete media
[21] = complete media vs cholesterol-free media + simvastatin (0.04 μM), […]
[22] = Complete minus Cholesterol-free, […]
[23] = NCI-H292 cells, cholesterol-free media without statin, FDA drug library screen
[24] = NCI-H292 cells, complete media, FDA drug library screen
[25] = NCI-H292 cells, cholesterol-free media with simvastatin 0.04 μM, FDA drug library screen (TABLE 2)
[26] = NCI-H292 cells, complete media, FDA drug library screen (TABLE 2)
[27] = complete media minus cholesterol-free media + simvastatin (0.04 μM), >0 enhanced anti-cancer activity, about 0 neutral, <0 antagonist
[28] = Complete minus Cholesterol-free, >0 enhanced anti-cancer activity, about 0 neutral, <0 antagonist
[29] = NCI-H292 cells, FDA library drug in cholesterol-free media with simvastatin 0.04 μM
[30] = NCI-H292 cells, FDA library drug in complete media
[31] = complete vs cholesterol-free media, >0 enhanced anti-cancer activity, about 0 neutral, <0 antagonist
[32] = complete vs cholesterol-free media, greater than 0 enhanced anti-cancer activity, about 0 neutral, below 0 antagonists

C[N+](C)(C)C[C@H](O)CC(=O)[O-].Cl [L-Carnitine (hydrochloride)]
Cholesterol-free media + simvastatin (0.04 μM) [1, 3]: 0.7755 | Complete Media [1, 4]: 0.7998 | Difference [1, 5]: 0.02 | Cholesterol-free [2, 6]: 1.478 | Difference [2, 7]: −0.31

C[N+](C)(C)C[C@H](O)CC(=O)[O-] [L-Carnitine]
Cholesterol-free media + simvastatin (0.04 μM) [1, 8]: 0.9127 | Complete Media [1, 9]: 0.8221 | Difference [1, 10]: −0.09 | Difference [2, 11]: −0.11 | Cholesterol-free [2, 12]: 1.053 | Complete [2, 9]: 0.9402

N[C@H]1CONC1=O [L-Cycloserine]
Cholesterol-free media + simvastatin (0.04 μM) [1, 13]: 0.815 | Complete Media [1, 14]: 0.9066 | Difference [1, 15]: 0.09 | Difference [2, 16]: −0.78 | Cholesterol-free [2, 17]: 1.458 | Complete [2, 18]: 0.6746

Cl.N[C@@H](CS)C(=O)O [L-Cysteine (hydrochloride)]
Cholesterol-free media + simvastatin (0.04 μM) [1, 19]: 1.122 | Complete Media [1, 20]: 0.9187 | Difference [1, 21]: −0.20 | Difference [2, 22]: −0.04 | Cholesterol-free [2, 23]: 1.166 | Complete [2, 24]: 1.124

N[C@@H](CS)C(=O)O [L-Cysteine]
Cholesterol-free media + simvastatin (0.04 μM) [1, 25]: 1.471 | Complete Media [1, 26]: 1.439 | Difference [1, 27]: −0.03 | Difference [2, 28]: −0.21 | Complete ([2]; NCI-H292 cells, complete media): 0.7323

Cl.NCCC[C@](N)(C(=O)O)C(F)F [L-Eflornithine (monohydrochloride)]
Cholesterol-free media + simvastatin (0.04 μM) [1, 25]: 1.266 | Complete Media [1, 26]: 1.268 | Difference [1, 27]: 0.00 | Difference [2, 28]: 0.02 | Cholesterol-free [2, 23]: 0.8255 | Complete [2, 24]: 0.8469

CNC[C@H](O)c1ccc(O)c(O)c1.O=C(O)C(O)C(O)C(=O)O [L-Epinephrine (Bitartrate)]
Cholesterol-free media + simvastatin (0.04 μM) [1, 13]: 1.096 | Complete Media [1, 14]: 1.136 | Difference [1, 15]: 0.04 | Difference [2, 11]: −0.14 | Cholesterol-free [2, 12]: 1.247 | Complete [2, 9]: 1.112

N[C@@H](CCC(=O)O)C(=O)[O-].[Na+] [L-Glutamic acid monosodium salt]
Cholesterol-free media + simvastatin (0.04 μM) [1, 29]: 1.191 | Complete Media [1, 30]: 0.778 | Difference [1, 21]: −0.41 | Difference [2, 22]: −0.03 | Cholesterol-free [2, 23]: 1.093 | Complete [2, 24]: 1.059

NC(=O)CC[C@H](N)C(=O)O [L-Glutamine]
Cholesterol-free media + simvastatin (0.04 μM) [1, 25]: 0.8178 | Complete Media [1, 26]: 0.7954 | Difference [1, 27]: −0.02 | Cholesterol-free [2, 23]: 1.026 | Complete [2, 24]: 1.522 | Difference [2, 31]: 0.50

N[C@@H](Cc1c[nH]cn1)C(=O)O [L-Histidine]
Cholesterol-free media + simvastatin (0.04 μM) [1, 13]: 1.86 | Complete Media [1, 14]: 1.878 | Difference [1, 15]: 0.02 | Difference [2, 16]: −0.88 | Cholesterol-free [2, 17]: 2.131 | Complete [2, 18]: 1.254

CN1[C@@H]2CC[C@H]1C[C@@H](OC(=O)[C@H](CO)c1ccccc1)C2 [L-Hyoscyamine]
Cholesterol-free media + simvastatin (0.04 μM) [1, 19]: 1.192 | Complete Media [1, 20]: 1.027 | Difference [1, 21]: −0.16 | Difference [2, 22]: −0.26 | Cholesterol-free [2, 6]: 1.23 | Complete ([2]; NCI-H292 cells, complete media): 0.9714

CC[C@H](C)[C@H](N)C(=O)O [L-Isoleucine]
Cholesterol-free media + simvastatin (0.04 μM) [1, 8]: 2.302 | Difference [1, 27]: −1.28 | Difference [2, 28]: 0.06 | Cholesterol-free [2, 23]: 1.023 | Complete [2, 24]: 1.082

C[C@H](O)C(=O)O [L-Lactic acid]
Cholesterol-free media + simvastatin (0.04 μM) [1, 19]: 1.063 | Complete Media [1, 20]: 0.8704 | Difference [1, 10]: −0.19 | Cholesterol-free [2, 6]: 1.267 | Complete ([2]; NCI-H292 cells, complete media): 0.8145 | Difference [2, 32]: −0.45

CC(C)C[C@H](N)C(=O)O [L-Leucine]
Cholesterol-free media + simvastatin (0.04 μM) [1, 19]: 1.064 | Complete Media [1, 20]: 0.8826 | Difference [1, 21]: −0.18 | Cholesterol-free [2, 23]: 1.354 | Complete [2, 24]: 1.837 | Difference [2, 7]: 0.48

Cl.NCCCC[C@H](N)C(=O)O [L-Lysine hydrochloride]
Cholesterol-free media + simvastatin (0.04 μM) [1, 8]: 1.192 | Complete Media [1, 9]: 1.079 | Difference [1, 21]: −0.11 | Difference [2, 22]: −0.25 | Cholesterol-free [2, 6]: 1.006 | Complete ([2]; NCI-H292 cells, complete media): 0.7519

NCCCC[C@H](N)C(=O)O [L-Lysine]
Cholesterol-free media + simvastatin (0.04 μM) [1, 29]: 1.021 | Complete Media [1, 30]: 0.7295 | Difference [1, 21]: −0.29 | Difference [2, 22]: −0.24 | Cholesterol-free [2, 6]: 1.096 | Complete ([2]; NCI-H292 cells, complete media): 0.8592

CSCC[C@H](N)C(=O)O [L-Methionine]
Cholesterol-free media + simvastatin (0.04 μM) [1, 13]: 0.8406 | Complete Media [1, 14]: 0.8869 | Difference [1, 15]: 0.05 | Difference [2, 11]: −0.12 | Cholesterol-free [2, 12]: 0.9015 | Complete [2, 9]: 0.7822

Cl.NCCC[C@H](N)C(=O)O [L-Ornithine (hydrochloride)]
Cholesterol-free media + simvastatin (0.04 μM) [1, 25]: 0.8763 | Complete Media [1, 26]: 0.8132 | Difference [1, 27]: −0.06 | Difference [2, 11]: −0.11 | Cholesterol-free [2, 12]: 1.434 | Complete [2, 9]: 1.328

NCCC[C@H](N)C(=O)O [L-Ornithine]
Cholesterol-free media + simvastatin (0.04 μM) [1, 8]: 0.9484 | Complete Media [1, 9]: 1.47 | Difference [1, 15]: 0.52 | Cholesterol-free [2, 6]: 1.429 | Complete ([2]; NCI-H292 cells, complete media): 1.042 | Difference [2, 32]: −0.39

N[C@@H](Cc1ccccc1)C(=O)O [L-Phenylalanine]
Cholesterol-free media + simvastatin (0.04 μM) [1, 19]: 0.988 | Complete Media [1, 20]: 0.7918 | Difference [1, 10]: −0.20 | Difference [2, 28]: −0.24 | Cholesterol-free [2, 6]: 1.103 | Complete ([2]; NCI-H292 cells, complete media): 0.8607

O=C(O)[C@@H]1CCCN1 [L-Proline]
Cholesterol-free media + simvastatin (0.04 μM) [1]: 1.794 | Complete Media [1]: 1.088 | Difference [1]: −0.71 | Cholesterol-free [2]: 1.37 | Complete [2]: 0.9909 | Difference [2]: −0.38

C[Se]CC[C@H](N)C(=O)O [L-SelenoMethionine]
Cholesterol-free media + simvastatin (0.04 μM) [1, 8]: 1.886 | Complete Media [1, 9]: 1.795 | Difference [1, 10]: −0.09 | Difference [2, 16]: −0.92 | Cholesterol-free [2, 17]: 2.252 | Complete [2, 18]: 1.327

N[C@@H](CO)C(=O)O [L-Serine]
Cholesterol-free media + simvastatin (0.04 μM) [1, 19]: 1.125 | Complete Media [1, 20]: 0.9461 | Difference [1, 21]: −0.18 | Cholesterol-free [2, 6]: 1.3 | Complete ([2]; NCI-H292 cells, complete media): 0.9649 | Difference [2, 7]: −0.33

N[C@@H](Cc1cc(I)c(Oc2cc(I)c(O)c(I)c2)c(I)c1)C(=O)O [L-Thyroxine (sodium salt pentahydrate)]
Cholesterol-free media + simvastatin (0.04 μM) [1, 13]: 0.8275 | Complete Media [1, 14]: 0.8532 | Difference [1, 15]: 0.03 | Difference [2, 11]: −0.15 | Cholesterol-free [2, 12]: 1.238 | Complete [2, 9]: 1.085

N[C@@H](Cc1cc(I)c(Oc2cc(I)c(O)c(I)c2)c(I)c1)C(=O)O.[Na] [L-Thyroxine (sodium)]
Cholesterol-free media + simvastatin (0.04 μM) [1, 13]: 0.8676 | Complete Media [1, 14]: 0.8889 | Difference [1, 15]: 0.02 | Difference [2, 28]: −0.07 | Cholesterol-free [2, 23]: 1.137 | Complete [2, 24]: 1.071

N[C@@H](Cc1cc(I)c(Oc2cc(I)c(O)c(I)c2)c(I)c1)C(=O)O [L-Thyroxine]
Cholesterol-free media + simvastatin (0.04 μM) [1, 8]: 1.059 | Complete Media [1, 9]: 1.284 | Difference [1, 15]: 0.23 | Difference [2, 28]: −0.28 | Cholesterol-free [2, 6]: 1.11 | Complete ([2]; NCI-H292 cells, complete media): 0.8302

N[C@@H](Cc1c[nH]c2ccccc12)C(=O)O [L-Tryptophan]
Cholesterol-free media + simvastatin (0.04 μM) [1, 19]: 1.157 | Complete Media [1, 20]: 0.9202 | Difference [1, 10]: −0.24 | Cholesterol-free [2, 23]: 1.009 | Complete [2, 24]: 1.103 | Difference [2, 31]: 0.09

CC(C)[C@H](N)C(=O)O [L-Valine]
Cholesterol-free media + simvastatin (0.04 μM) [1, 3]: 0.8399 | Complete Media [1, 4]: 0.8676 | Difference [1, 5]: 0.03 | Difference [2, 22]: −0.26 | Cholesterol-free [2, 6]: 1.382 | Complete ([2]; NCI-H292 cells, complete media): 1.127

CC(CCc1ccccc1)NCC(O)c1ccc(O)c(C(N)=O)c1 (centres unmarked) [Labetalol (hydrochloride)]
Cholesterol-free media + simvastatin (0.04 μM) [1, 25]: 1.147 | Complete Media [1, 26]: 1.128 | Difference [1, 27]: −0.02 | Difference [2, 16]: −0.64 | Complete [2, 18]: 0.9816

CCOC(=O)C1=C(C)NC(C)=C(C(=O)OCC)C1c1ccccc1/C=C/C(=O)OC(C)(C)C [Lacidipine]
Cholesterol-free media + simvastatin (0.04 μM) [1, 29]: 1.8 | Complete Media [1, 30]: 0.96 | Difference [1, 10]: −0.84 | Difference [2, 28]: −0.07 | Cholesterol-free [2, 23]: 1.081 | Complete [2, 24]: 1.013

OC[C@@H](O)[C@@H](O[C@@H]1O[C@H](CO)[C@H](O)[C@H](O)[C@H]1O)[C@H](O)[C@@H](O)CO [Lactitol (monohydrate)]
Cholesterol-free media + simvastatin (0.04 μM) [1, 13]: 1.183 | Complete Media [1, 14]: 1.215 | Difference [1, 15]: 0.03 | Difference [2, 11]: −0.17 | Cholesterol-free [2, 12]: 1.059 | Complete [2, 9]: 0.8908
